Earlier results as cited in US20060228403A1, “Nutritional supplements for cardiovascular health” (priority 2005, published 2006).
One block for each molecule: values may come before it.

Experiments:
[1] = test system: platelet aggregation in cerebral arterioles; settings: mice
thromboxane B2 = settings: mice; fish oil daily by gavage six weeks; indomethacin 0.5 mg/kg ip acute
forearm microcirculation = settings: after supplementation 4 g/d for 6 weeks
[2] = test system: cytochrome P450 omega-hydroxylase; settings: hamster; for magnitude of O2-induced constriction of arterioles in the cremaster and retractor muscles: 17-octadecynoic acid 10 micromolar superfusion, DDMS intravenous infusion

SMILES: COc1ccc2c(c1)c(CC(=O)O)c(C)n2C(=O)c1ccc(Cl)cc1 [Indomethacin, indomethacin]
effect on arteriolar platelet aggregation [1]: significantly slows | increase of time to first arteriolar aggregate ([1]; 0.5 mg/kg ip acute): 35% | decrease of serum thromboxane B2 (thromboxane B2): 80%

plasma phospholipid DHA composition (forearm microcirculation): increased
SMILES: CC/C=C\C/C=C\C/C=C\C/C=C\C/C=C\C/C=C\CCC(=O)O [DHA, docosahexaenoic acid]

SMILES: C#CCCCCCCCCCCCCCCCC(=O)O [17-octadecynoic acid]
arteriolar constriction in response to elevated PO2 in the epithelial portion of the cheek pouch [2]: unaffected | magnitude of O2-induced constriction of arterioles in the cremaster and retractor muscles [2]: significant reduction

SMILES: CS(=O)(=O)NC(=O)CCCCCCCCCC=C(Br)Br [N-methylsulfonyl-12,12-dibromododec-11-enamide]
arteriolar constriction in response to elevated PO2 in the epithelial portion of the cheek pouch [2]: unaffected | magnitude of O2-induced constriction of arterioles in the cremaster and retractor muscles [2]: significant reduction

plasma phospholipid EPA levels (forearm microcirculation): increased significantly
SMILES: CC/C=C\C/C=C\C/C=C\C/C=C\C/C=C\CCCC(=O)O [EPA, eicosapentaenoic acid]
